The source made the active and inactive calls. For most assays here, no stated cut-off is given here; in the data, actives have a measured Kd and inactives only a lower limit.
Key:
[1] = target: Serine/threonine-protein kinase MRCK gamma (Homo sapiens, UniProt Q6DT37)
[2] = target: Fibroblast growth factor receptor 1 (Homo sapiens, UniProt P11362)
[3] = target: Glycogen synthase kinase-3 alpha (Homo sapiens, UniProt P49840)
[4] = target: T1, Mitogen-activated protein kinase kinase kinase kinase 2 (Homo sapiens, UniProt Q12851)
T1 sequence (Q12851 whole entry): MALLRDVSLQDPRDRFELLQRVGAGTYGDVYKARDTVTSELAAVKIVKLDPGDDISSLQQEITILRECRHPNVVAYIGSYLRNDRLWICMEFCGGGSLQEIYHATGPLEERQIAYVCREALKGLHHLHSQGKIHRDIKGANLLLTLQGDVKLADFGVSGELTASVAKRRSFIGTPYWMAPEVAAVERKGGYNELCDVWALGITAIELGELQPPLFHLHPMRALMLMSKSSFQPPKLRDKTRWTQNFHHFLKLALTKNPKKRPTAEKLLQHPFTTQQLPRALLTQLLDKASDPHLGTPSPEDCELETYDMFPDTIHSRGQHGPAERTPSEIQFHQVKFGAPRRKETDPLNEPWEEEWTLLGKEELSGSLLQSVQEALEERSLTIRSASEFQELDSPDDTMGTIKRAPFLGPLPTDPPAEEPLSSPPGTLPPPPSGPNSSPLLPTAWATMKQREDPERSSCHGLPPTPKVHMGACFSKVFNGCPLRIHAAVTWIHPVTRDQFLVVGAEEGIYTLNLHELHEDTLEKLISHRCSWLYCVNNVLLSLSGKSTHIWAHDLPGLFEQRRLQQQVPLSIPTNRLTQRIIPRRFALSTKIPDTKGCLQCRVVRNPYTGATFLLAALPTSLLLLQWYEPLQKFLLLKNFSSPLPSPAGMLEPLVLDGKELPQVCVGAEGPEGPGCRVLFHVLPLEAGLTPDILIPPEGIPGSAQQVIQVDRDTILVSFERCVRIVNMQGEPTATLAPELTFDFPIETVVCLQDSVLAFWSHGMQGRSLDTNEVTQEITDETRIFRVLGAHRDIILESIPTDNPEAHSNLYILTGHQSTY

[5] = target: T2, DNA replication licensing factor MCM4 (Homo sapiens, UniProt P33991)
T2 sequence (P33991 whole entry): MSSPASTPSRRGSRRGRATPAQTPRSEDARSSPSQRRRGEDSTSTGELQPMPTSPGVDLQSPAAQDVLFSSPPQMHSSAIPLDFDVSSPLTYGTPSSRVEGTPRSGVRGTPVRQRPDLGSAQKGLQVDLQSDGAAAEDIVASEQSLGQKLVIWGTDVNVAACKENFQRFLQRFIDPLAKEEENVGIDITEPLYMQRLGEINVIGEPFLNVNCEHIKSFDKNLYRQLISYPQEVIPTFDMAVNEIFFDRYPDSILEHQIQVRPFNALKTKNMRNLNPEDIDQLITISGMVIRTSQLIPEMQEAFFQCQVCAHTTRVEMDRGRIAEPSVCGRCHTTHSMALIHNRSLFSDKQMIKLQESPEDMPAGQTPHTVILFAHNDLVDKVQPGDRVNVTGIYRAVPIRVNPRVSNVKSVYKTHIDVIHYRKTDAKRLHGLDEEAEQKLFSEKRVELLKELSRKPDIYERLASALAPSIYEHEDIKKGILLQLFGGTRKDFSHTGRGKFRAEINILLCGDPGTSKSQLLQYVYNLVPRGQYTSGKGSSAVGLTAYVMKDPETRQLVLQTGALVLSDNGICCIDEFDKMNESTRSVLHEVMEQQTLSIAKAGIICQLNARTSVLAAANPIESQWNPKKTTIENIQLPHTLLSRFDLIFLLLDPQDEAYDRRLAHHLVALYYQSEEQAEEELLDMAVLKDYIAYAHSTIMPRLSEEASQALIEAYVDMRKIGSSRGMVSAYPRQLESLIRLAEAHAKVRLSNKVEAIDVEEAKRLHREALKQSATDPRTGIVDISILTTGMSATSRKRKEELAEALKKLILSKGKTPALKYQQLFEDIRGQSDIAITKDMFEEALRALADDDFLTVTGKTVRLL

[6] = target: T3, Ribosyldihydronicotinamide dehydrogenase [quinone] (Homo sapiens, UniProt P16083)
T3 sequence (P16083 whole entry): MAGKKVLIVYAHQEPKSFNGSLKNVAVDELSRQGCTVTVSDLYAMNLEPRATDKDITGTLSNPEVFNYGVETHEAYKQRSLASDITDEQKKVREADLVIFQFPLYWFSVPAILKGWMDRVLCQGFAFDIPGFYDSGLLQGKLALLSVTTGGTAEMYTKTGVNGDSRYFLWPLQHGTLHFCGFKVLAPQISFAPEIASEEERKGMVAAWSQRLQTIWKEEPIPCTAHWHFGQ

[7] = target: Protein-tyrosine kinase 6 (Homo sapiens, UniProt Q13882)
[8] = target: GTP-binding nuclear protein Ran (Homo sapiens, UniProt P62826)
[9] = target: T4, STE20-related kinase adapter protein alpha (Homo sapiens, UniProt Q7RTN6)
T4 sequence (Q7RTN6 whole entry): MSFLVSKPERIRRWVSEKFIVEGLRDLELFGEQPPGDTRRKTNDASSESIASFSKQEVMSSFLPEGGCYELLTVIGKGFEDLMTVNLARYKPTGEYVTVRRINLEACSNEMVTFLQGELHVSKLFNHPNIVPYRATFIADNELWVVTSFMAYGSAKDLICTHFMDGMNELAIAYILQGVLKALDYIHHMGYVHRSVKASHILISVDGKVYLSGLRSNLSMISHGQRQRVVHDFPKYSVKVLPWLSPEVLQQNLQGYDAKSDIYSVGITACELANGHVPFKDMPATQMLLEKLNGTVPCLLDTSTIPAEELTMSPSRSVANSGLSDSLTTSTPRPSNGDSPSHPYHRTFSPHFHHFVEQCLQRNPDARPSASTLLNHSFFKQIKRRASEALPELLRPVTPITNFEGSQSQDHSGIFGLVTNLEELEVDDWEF

Sequence of Fibroblast growth factor receptor 1 (P11362 whole entry): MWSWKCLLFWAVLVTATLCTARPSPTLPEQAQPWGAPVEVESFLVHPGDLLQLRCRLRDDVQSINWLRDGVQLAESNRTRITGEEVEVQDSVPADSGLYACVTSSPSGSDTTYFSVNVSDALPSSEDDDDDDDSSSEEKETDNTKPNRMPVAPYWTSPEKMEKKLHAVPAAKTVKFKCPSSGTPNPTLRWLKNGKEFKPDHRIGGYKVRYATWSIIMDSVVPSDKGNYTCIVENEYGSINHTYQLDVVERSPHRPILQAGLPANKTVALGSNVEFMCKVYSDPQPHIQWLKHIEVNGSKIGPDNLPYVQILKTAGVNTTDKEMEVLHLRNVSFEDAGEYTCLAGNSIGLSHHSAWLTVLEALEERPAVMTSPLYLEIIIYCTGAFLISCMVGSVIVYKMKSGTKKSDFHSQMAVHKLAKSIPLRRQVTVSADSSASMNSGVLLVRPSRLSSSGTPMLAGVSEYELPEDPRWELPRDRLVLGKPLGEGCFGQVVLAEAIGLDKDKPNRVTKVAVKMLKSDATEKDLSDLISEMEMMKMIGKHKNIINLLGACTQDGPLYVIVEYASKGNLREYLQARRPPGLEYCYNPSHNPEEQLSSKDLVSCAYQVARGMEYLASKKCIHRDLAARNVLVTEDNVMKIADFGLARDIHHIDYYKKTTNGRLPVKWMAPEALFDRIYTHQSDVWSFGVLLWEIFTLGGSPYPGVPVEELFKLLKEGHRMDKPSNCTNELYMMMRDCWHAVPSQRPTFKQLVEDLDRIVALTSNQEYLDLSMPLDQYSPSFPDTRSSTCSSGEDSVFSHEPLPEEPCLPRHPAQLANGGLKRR
Sequence of Glycogen synthase kinase-3 alpha (P49840 whole entry): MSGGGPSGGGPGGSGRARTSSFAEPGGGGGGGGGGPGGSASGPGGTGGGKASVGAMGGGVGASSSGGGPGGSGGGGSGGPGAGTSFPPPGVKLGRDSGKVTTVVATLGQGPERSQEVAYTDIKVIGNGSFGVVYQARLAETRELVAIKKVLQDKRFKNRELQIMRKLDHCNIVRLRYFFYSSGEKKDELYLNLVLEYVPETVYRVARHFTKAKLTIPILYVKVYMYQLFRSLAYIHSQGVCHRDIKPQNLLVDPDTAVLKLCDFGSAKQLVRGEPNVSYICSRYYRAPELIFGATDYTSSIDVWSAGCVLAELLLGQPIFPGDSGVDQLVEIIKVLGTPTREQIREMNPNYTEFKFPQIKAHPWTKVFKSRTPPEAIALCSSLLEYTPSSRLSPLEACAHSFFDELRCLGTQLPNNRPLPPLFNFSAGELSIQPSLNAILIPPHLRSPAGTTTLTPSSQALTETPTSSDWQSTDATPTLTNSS
Sequence of Serine/threonine-protein kinase MRCK gamma (Q6DT37 whole entry): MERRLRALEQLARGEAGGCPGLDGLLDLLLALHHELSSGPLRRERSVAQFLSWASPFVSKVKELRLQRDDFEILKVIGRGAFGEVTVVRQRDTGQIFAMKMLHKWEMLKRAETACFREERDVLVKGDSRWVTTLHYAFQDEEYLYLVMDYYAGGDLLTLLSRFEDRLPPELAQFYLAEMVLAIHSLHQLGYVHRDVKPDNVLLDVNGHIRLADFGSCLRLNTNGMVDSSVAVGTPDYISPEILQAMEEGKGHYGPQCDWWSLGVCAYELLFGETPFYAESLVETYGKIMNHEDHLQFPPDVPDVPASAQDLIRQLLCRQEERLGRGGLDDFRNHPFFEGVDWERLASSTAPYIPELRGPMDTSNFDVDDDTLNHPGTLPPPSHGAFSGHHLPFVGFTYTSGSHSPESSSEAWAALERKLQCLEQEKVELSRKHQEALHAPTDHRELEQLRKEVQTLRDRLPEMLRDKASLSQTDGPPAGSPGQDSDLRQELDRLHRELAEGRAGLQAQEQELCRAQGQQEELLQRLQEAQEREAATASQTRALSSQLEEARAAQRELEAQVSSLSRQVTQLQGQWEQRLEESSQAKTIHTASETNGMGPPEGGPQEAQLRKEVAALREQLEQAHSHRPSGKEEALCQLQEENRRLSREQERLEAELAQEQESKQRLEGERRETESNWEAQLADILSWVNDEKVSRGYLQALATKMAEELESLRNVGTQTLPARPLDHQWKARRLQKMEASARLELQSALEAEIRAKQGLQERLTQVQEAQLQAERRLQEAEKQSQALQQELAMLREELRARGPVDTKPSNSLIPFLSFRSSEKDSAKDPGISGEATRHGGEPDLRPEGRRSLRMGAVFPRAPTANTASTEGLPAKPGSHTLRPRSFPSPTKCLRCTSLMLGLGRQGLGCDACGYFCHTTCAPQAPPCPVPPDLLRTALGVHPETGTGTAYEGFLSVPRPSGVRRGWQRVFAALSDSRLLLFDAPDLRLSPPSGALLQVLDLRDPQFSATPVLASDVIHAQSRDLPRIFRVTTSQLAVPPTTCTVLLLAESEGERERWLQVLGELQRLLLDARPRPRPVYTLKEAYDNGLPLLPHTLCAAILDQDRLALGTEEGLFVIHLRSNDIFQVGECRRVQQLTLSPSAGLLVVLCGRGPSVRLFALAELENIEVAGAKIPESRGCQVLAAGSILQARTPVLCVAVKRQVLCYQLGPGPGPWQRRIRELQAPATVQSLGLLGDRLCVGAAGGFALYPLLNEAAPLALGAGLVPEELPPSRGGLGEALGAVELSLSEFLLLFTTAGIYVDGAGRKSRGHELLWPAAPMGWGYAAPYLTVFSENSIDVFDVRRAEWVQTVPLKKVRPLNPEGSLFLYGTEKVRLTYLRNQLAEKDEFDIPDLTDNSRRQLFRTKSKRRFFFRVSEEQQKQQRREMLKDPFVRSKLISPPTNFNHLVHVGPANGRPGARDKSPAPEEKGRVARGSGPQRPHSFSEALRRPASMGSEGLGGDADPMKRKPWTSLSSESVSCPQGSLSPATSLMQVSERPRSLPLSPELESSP
Sequence of Protein-tyrosine kinase 6 (Q13882 whole entry): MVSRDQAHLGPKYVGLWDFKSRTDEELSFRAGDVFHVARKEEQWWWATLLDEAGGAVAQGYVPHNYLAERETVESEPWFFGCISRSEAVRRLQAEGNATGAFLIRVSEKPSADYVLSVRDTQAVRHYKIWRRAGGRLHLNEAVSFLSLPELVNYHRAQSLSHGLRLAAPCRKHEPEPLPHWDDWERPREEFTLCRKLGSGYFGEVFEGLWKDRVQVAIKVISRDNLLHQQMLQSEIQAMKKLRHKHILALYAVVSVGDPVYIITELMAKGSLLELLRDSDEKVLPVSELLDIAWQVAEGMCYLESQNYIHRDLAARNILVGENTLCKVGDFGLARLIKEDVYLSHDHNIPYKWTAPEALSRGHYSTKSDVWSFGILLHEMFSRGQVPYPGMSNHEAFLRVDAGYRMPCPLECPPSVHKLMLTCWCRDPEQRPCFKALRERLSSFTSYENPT

| Compound | Kd [1] | Kd [2] | Kd [3] | Kd [4] | Kd [5] | Kd [6] | Kd [7] | Kd [8] | Kd [9] |
| --- | --- | --- | --- | --- | --- | --- | --- | --- | --- |
| CN(C[C@@H]1COCCO1)S(=O)(=O)Nc1ccc2ccc3ncc(-c4cnn(C)c4)cc3c(=O)c2c1 [MK-2461] | > 30 µM (inactive) | > 30 µM (inactive) | > 30 µM (inactive) | > 30 µM (inactive) | > 30 µM (inactive) | 52.6 µM (active) | > 30 µM (inactive) | > 30 µM (inactive) | > 30 µM (inactive) |
| Cn1cc(-c2cnc3ccc4ccc(CS(=O)(=O)NCc5ccccn5)cc4c(=O)c3c2)cn1 [MK-8033] | > 30 µM (inactive) | > 30 µM (inactive) | > 30 µM (inactive) | > 30 µM (inactive) | > 30 µM (inactive) | > 30 µM (inactive) | > 30 µM (inactive) | > 30 µM (inactive) | > 30 µM (inactive) |
| FC(F)(F)c1ccc(/C=C/c2nc(COc3ccc(CCCCn4ccnn4)cc3)co2)cc1 [MUBRITINIB] | > 30 µM (inactive) | > 30 µM (inactive) | > 30 µM (inactive) | > 30 µM (inactive) | > 30 µM (inactive) | > 30 µM (inactive) | > 30 µM (inactive) | > 30 µM (inactive) | > 30 µM (inactive) |
| COc1ncc(-c2ccc3nccc(-c4ccnnc4)c3c2)cc1NS(=O)(=O)c1ccc(F)cc1F [OMIPALISIB] | > 30 µM (inactive) | > 30 µM (inactive) | > 30 µM (inactive) | > 30 µM (inactive) | > 30 µM (inactive) | > 30 µM (inactive) | > 30 µM (inactive) | > 30 µM (inactive) | > 30 µM (inactive) |
| CCOc1cc2ncc(C#N)c(Nc3ccc(F)c(Cl)c3)c2cc1NC(=O)/C=C/CN(C)C [PELITINIB] | > 30 µM (inactive) | > 30 µM (inactive) | > 30 µM (inactive) | 2.28 µM (active) | > 30 µM (inactive) | > 30 µM (inactive) | > 30 µM (inactive) | > 30 µM (inactive) | > 30 µM (inactive) |
| Cc1nc(Nc2n[nH]c3c2CN(C(=O)N[C@H](CN(C)C)c2ccccc2)C3(C)C)c2sccc2n1 [PF-03758309] | > 30 µM (inactive) | 0.208 µM (active) | 2.09 µM (active) | > 30 µM (inactive) | > 30 µM (inactive) | > 30 µM (inactive) | > 30 µM (inactive) | > 30 µM (inactive) | > 30 µM (inactive) |
| Cc1cnc(NC(=O)Nc2cc(Br)c(C)cc2OC[C@@H]2CNCCO2)cn1 [RABUSERTIB] | > 30 µM (inactive) | > 30 µM (inactive) | > 30 µM (inactive) | > 30 µM (inactive) | > 30 µM (inactive) | > 30 µM (inactive) | > 30 µM (inactive) | > 30 µM (inactive) | > 30 µM (inactive) |
| CO[C@H]1C[C@@H]2CC[C@@H](C)[C@@](O)(O2)C(=O)C(=O)N2CCCC[C@H]2C(=O)O[C@H]([C@H](C)C[C@@H]2CC[C@@H](OP(C)(C)=O)[C@H](OC)C2)CC(=O)[C@H](C)/C=C(\C)[C@@H](O)[C@@H](OC)C(=O)[C@H](C)C[C@H](C)/C=C/C=C/C=C/1C [RIDAFOROLIMUS] | > 30 µM (inactive) | > 30 µM (inactive) | > 30 µM (inactive) | > 30 µM (inactive) | > 30 µM (inactive) | > 30 µM (inactive) | > 30 µM (inactive) | > 30 µM (inactive) | > 30 µM (inactive) |
| N#CC1(c2ccc(NC(=O)c3cccnc3NCc3ccncc3)cc2)CCCC1 [RIVOCERANIB] | > 30 µM (inactive) | > 30 µM (inactive) | > 30 µM (inactive) | > 30 µM (inactive) | > 30 µM (inactive) | > 30 µM (inactive) | > 30 µM (inactive) | > 30 µM (inactive) | > 30 µM (inactive) |
| O=c1[nH]ccc2cc(OC3CCNCC3)ccc12 [SAR-407899 FREE BASE] | > 30 µM (inactive) | > 30 µM (inactive) | > 30 µM (inactive) | > 30 µM (inactive) | > 30 µM (inactive) | > 30 µM (inactive) | > 30 µM (inactive) | > 30 µM (inactive) | > 30 µM (inactive) |
| CN1CCN(CCOc2cc(OC3CCOCC3)c3c(Nc4c(Cl)ccc5c4OCO5)ncnc3c2)CC1 [SARACATINIB] | > 30 µM (inactive) | > 30 µM (inactive) | > 30 µM (inactive) | > 30 µM (inactive) | > 30 µM (inactive) | > 30 µM (inactive) | 0.566 µM | > 30 µM (inactive) | > 30 µM (inactive) |
| Cn1cc(-c2cnn3c(N)c(Br)c([C@@H]4CCCNC4)nc23)cn1 [SCH-900776] | > 30 µM (inactive) | > 30 µM (inactive) | > 30 µM (inactive) | > 30 µM (inactive) | > 30 µM (inactive) | 2.36 µM (active) | > 30 µM (inactive) | > 30 µM (inactive) | > 30 µM (inactive) |
| CO[C@H]1C[C@@H]2CC[C@@H](C)[C@@](O)(O2)C(=O)C(=O)N2CCCC[C@H]2C(=O)O[C@H]([C@H](C)C[C@@H]2CC[C@@H](O)[C@H](OC)C2)CC(=O)[C@H](C)/C=C(\C)[C@@H](O)[C@@H](OC)C(=O)[C@H](C)C[C@H](C)/C=C/C=C/C=C/1C [SIROLIMUS] | > 30 µM (inactive) | > 30 µM (inactive) | > 30 µM (inactive) | > 30 µM (inactive) | > 30 µM (inactive) | > 30 µM (inactive) | > 30 µM (inactive) | > 30 µM (inactive) | > 30 µM (inactive) |
| CCS(=O)(=O)c1cccc(-c2cc(C(=O)NC3CCN(C)CC3)c(C)c3[nH]c4ncc(C)cc4c23)c1 [TAK-901] | > 30 µM (inactive) | 1.39 µM (active) | 22.5 µM (active) | > 30 µM (inactive) | > 30 µM (inactive) | 88.9 µM (active) | 0.18 µM (active) | > 30 µM (inactive) | > 30 µM (inactive) |

— ChEMBL document CHEMBL3991601, “The target landscape of clinical kinase drugs” (Science, 2017)
